Source: patent publication EP3431088A1, “MNTBAP FOR USE IN INDUCING A TRANSIENT IMMUNE TOLERANCE” (priority 2017, dated 2019)

Assays:
clathrin and CD4 = assay: Immunofluorescence confocal microscopy, anti-CD4 and anti-clathrin; assay type: cell-based; conditions: murine splenic enriched CD4+ T cells, 2 hours, 400 µM, vs non-treated
Procedure: After culture in complete medium with or without MnTBAP at 400 µM, murine splenic CD4^+ T cells are collected and subjected to immunostaining as previously described (T. M. Neildez-Nguyen et al., Immunology 144, 431. 2015). Briefly, after adhesion on poly-L-lysine-coated slides (Thermo Fisher Scientific), cells are fixed in 4% paraformaldehyde for 5 minutes at 4°C and for 10 minutes at room temperature, and permeabilized with methanol for 6 minutes at -20°C. Cells are stained overnight with rat anti-mouse CD4-APC (BD Biosciences) and rabbit anti-mouse clathrin (Abcam, Paris, France) antibodies, and then with the goat anti-rabbit Alexa Fluor 488 secondary antibody (Invitrogen, Carlsbad, USA) for 30 minutes at room temperature. Negative controls are performed with the corresponding isotype controls of primary antibodies used (BD Biosciences and Abcam). The slides are mounted with Fluoromount/Dapi (SouthernBiotech, Montrouge, France). Images are acquired with confocal-laser-scanning microscope (Leica Microsystems, Nanterre, France).

[1] = system: humoral response against capsid; assay: Anti-rAAV1 IgG titers by ELISA after IV rAAV and readministration; assay type: in vivo, C57BL/6 mice; conditions: for specific anti-rAAV IgG: 80 mg/kg IP daily 5 days, vs control group
Procedure: MnTBAP (Calbiochem, San Diego, USA or Enzo Life Sciences, Farmingdale, USA) is dissolved in 75 mM NaOH to constitute a 20 mM stock solution. MnTBAP is dissolved in the complete medium, used for in vitro treatment, containing RPMI-1640 supplemented with 10% heat-inactivated fetal calf serum, 100 U/ml penicillin/streptomycin, 2 mM glutamax and 50 µM β-mercaptoethanol β-ME). Hypertonic medium, used to block clathrin dependent endocytosis, is complete medium supplemented with 0.45 M sucrose. For in vivo treatment, the stock solution is diluted with PBS and administered at 80 mg/kg intraperitoneally daily during five days. Control animals are injected with equivalent volume of PBS.
Intravenous (IV) injection: Two hours post first IP injection of MnTBAP, mice are anesthetized by IP injection of xylazine (10 mg/kg) and ketamine (100 mg/kg) and 200 µl of a rAAV2/1 CMV SGCA HY viral preparation containing 2.5.10^9 vg is injected into retro orbital sinus or into tail vein. Controls are injected with PBS. Serum samples are harvested at D21 and D28 post vector injection to analyze capsid-specific humoral response.
Readministration protocol: After the initial IV injection of rAAV2/1 CMV SGCA HY vector at D0 (two hours post first IP injection of MnTBAP) the second rAAV1 injection (2.10^9 vg of rAAV2/1 CMV mSeAP) is performed 28 days later in the left TA muscle. Mice are followed up to 93 days after readministration to analyze capsid-specific humoral response and to measure circulating mSeAP from serum samples. Mice are killed 93 days after second injection of vector. Left and right TA muscles are harvested for histological and enzymatic assay.
rAAVl-specific serum antibody titers are evaluated by ELISA. […] Reaction is stopped with an H2SO4 solution and the optical density at 450 nm is determined using a […] (Discovery HT-R, BioServ, Thiais, France) with KC4 software. The area under the curve (AUC) values obtained from the optical densities at four dilution points are calculated for statistical analysis using GraphPad Prism software (Logi Labo, Paris, France).

O=C(O)c1ccc(-c2c3nc(c(-c4ccc(C(=O)O)cc4)c4ccc([n-]4)c(-c4ccc(C(=O)O)cc4)c4nc(c(-c5ccc(C(=O)O)cc5)c5ccc2[n-]5)C=C4)C=C3)cc1.[Mn+3] [MnTBAP, manganese [III] tetrakis (4-benzoic acid) porphyrin]
colocalization of clathrin and CD4 (clathrin and CD4): colocalization of clathrin and CD4 is observed | specific anti-rAAV IgG ([1]; Day 21 post IV vector injection): no or significantly less specific anti-rAAV IgG | specific anti-rAAV IgG ([1]; Day 28 post IV vector injection): no or significantly less specific anti-rAAV IgG | specific anti-rAAV IgG titer ([1]; serum 10 days after vector readministration in TA (28 days post first injection), vs PBS): decrease of specific anti-rAAV IgG titer
